Entries after “also recorded” stand apart in the source; their conditions may differ.
What was measured:
[1] = biological target: T1, recombinant Rv3378c protein (Mycobacterium tuberculosis, UniProt P9WJ61); experiment: Rv3378c enzymatic assays (tuberculosinyl transferase, HPLC-MS detection of 1-TbAd); type: biochemical, M. tuberculosis; conditions: pH 7.4
T1 construct: hexahistidine (His6) tag from pET-28b, thrombin-cleavable (N, cleaved yes); made in house; host or cells: E. coli BL21-CodonPlus, co-expressed with GroES/GroEL chaperones
T1 sequence (P9WJ61 1-296): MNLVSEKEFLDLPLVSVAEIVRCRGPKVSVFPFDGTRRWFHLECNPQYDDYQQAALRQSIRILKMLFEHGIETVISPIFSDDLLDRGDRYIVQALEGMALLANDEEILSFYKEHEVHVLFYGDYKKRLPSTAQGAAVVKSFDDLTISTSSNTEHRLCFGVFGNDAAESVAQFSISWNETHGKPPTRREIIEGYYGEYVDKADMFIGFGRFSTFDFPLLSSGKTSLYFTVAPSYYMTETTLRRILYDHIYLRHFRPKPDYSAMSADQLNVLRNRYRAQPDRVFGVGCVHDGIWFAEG

phagosomal acidification = conditions: synthetic tuberculosinols coupled to beads; reference (21); cited from earlier work

| Molecule | product formation by Rv3378c from diterpene pyrophosphate substrate and adenosine [1] | effect on phagosomal acidification (phagosomal acidification) |
| --- | --- | --- |
| CC(C)=CCC/C(C)=C/CC/C(C)=C/CC/C(C)=C/COP(=O)(O)OP(=O)(O)O [GGPP, geranylgeranyl pyrophosphate] | little or no product; also recorded: does not act on GGPP |  |
| C/C(=C\CO)CC[C@@]1(C)[C@@H]2CCCC(C)(C)C2=CC[C@@H]1C [tuberculosinols, tuberculosinol] |  | block phagosomal acidification |
| tuberculosinyl pyrophosphate [TbPP] | catalyzed the condensation of adenosine and TbPP to generate 1-TbAd |  |

Reference: patent publication US10197560B2 (priority 2013, dated 2019)
